Tested on: transient middle cerebral artery occlusion (MCAO) in SD rats
Test: Transient (90 min.) middle cerebral artery occlusion (MCAO) in SD rats
Assay type: in vivo, rat
Conditions: 90 min MCAO, 25 mg/kg intravenous bolus at occlusion, then 50 mg/kg subcutaneous repeatedly, histology at 3 days, FIG. 2
Description: 1. Transient focal cerebral ischemia: A rodent model of transient middle cerebral artery occlusion (MCA) occlusion was used to determine the effect of a representative GSK3 inhibitor compound of the invention, 6-[(2-{[6-(2,4-dichlorophenyl)-5-imidazolyl-2-pyridyl]amino}ethyl)amino]pyridine-3-carbonitrile (CT 99025) in the inhibition of ischemic damage due to stroke. Ischemia was induced using an occluding intraluminal suture model (M. A. Yenari et al., “Time-course and treatment response with SNX-111, an N-type calcium channel blocker, in a rodent model of focal cerebral ischemia using diffusion-weighted MRI,” Brain Res 739:3645 (1996)). Animals were anesthetized with 3% halothane (1-2% maintenance) via face mask. Depth of anesthesia was monitored every 15 minutes by checking toe pinch, and the maintenance halothane levels were adjusted accordingly. […] During the surgical procedure, the following parameters were monitored and maintained in the normal physiological range: mean arterial blood pressure (MABP, measured via a femoral artery catheter), respiratory rate, rectal temperature, heart rate, arterial blood gases, blood glucose, and hematocrit. […]
3. […] Regions without staining were delineated using a computer assisted image analysis program (MCID, St. Catherine's, Ottawa), and expressed as the percent injury of the ipsilateral hemisphere. […]

For “6-[(2-{[6-(2,4-dichlorophenyl)-5-imidazolyl-2-pyridyl]amino}ethyl)amino]pyridine-3-carbonitrile [CT 99025]”, the “ischemic area (percent injury of the ipsilateral hemisphere) versus vehicle control” value was “substantially reduced”.

From US20050203059A1, “Methods and compositions for treatment of ischemia” (priority 2002, published 2005)
